Here are results for three molecules from US20130012506A1 (priority 2010, published 2013).

Assay [1] relates to M. tuberculosis H37Rv. Type of assay: cell-based, Mycobacterium tuberculosis.
The test system of assay [2] is M. tuberculosis clinical isolates. In kind it is cell-based, Mycobacterium tuberculosis. The following applies: multi-drug-resistant and extensive-drug-resistant isolates.

For `NNC(=O)c1ccncc1` [INH, isoniazid], in assay [1], the Frequency of resistance is on record as 2.9×10^−6.
In the case of `O=c1c(CO)c(Nc2cccc(Cl)c2)nc2c(F)cccn12` [compound 264, 2-(3-Chlorophenylamino)-9-fluoro-3-(hydroxymethyl)-4H-pyrido[1,2-a]pyrimidin-4-one], the spontaneous mutational rate in assay [1] was 7×10^−7.
As for `Cc1cccn2c(=O)c(C=O)c(Nc3cccc(Cl)c3)nc12` [compound 133, 2-(3-Chlorophenylamino)-9-methyl-4-oxo-4H-pyrido[1,2-a]pyrimidine-3-carbaldehyde], in assay [2], the “MIC values for MDR-TB and XDR-TB isolates strains” value is “within the micromolar range”.
